Data taken from US20240124454A1, “TRICYCLIC COMPOUND AND USE THEREOF” (NANJING ZAIMING PHARMACEUTICAL CO., LTD., priority 2020, published 2024).

What follows are compounds tested against hERG potassium channel (Homo sapiens (Human), UniProt Q12809) (assay: hERG inhibitory activity, manual patch-clamp in HEK293 cells). Details: HEK293 stably expressing hERG.
Sequence of hERG potassium channel (Q12809 whole entry): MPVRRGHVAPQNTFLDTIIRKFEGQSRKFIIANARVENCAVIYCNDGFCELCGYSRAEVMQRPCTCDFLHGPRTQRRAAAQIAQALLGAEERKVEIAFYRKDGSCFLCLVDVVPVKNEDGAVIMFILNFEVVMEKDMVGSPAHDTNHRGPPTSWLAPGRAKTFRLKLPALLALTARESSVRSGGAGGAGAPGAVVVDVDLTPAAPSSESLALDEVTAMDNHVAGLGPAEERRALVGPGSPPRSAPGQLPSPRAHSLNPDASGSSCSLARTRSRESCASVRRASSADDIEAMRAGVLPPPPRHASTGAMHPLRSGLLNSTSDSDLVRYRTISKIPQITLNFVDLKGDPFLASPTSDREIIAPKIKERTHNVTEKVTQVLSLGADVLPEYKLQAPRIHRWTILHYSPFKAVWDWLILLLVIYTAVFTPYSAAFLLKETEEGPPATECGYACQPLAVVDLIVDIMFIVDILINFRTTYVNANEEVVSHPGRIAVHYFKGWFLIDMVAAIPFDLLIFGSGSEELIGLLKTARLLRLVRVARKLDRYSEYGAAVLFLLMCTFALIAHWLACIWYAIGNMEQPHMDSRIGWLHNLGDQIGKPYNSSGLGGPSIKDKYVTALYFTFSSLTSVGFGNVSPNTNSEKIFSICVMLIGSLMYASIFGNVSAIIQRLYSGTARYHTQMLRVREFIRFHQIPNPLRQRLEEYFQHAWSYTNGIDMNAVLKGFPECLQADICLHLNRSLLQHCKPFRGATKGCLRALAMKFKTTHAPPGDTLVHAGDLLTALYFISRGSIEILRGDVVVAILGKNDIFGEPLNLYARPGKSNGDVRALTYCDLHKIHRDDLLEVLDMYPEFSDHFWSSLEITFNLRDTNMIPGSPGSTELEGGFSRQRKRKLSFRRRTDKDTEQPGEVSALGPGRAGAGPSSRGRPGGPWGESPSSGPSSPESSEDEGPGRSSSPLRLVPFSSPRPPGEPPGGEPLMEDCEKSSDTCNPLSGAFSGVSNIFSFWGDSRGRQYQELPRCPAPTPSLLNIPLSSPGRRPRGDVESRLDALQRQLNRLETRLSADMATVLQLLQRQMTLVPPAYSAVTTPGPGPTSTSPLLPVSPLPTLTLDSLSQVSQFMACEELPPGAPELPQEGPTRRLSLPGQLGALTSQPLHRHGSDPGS
Type: cell-based
Procedure: Test Example 8. Assay for hERG Inhibitory Activity of Compound of Present Application
The inhibition of hERG activity by the compounds of the present application was determined using the following method.
I. Experimental materials and instruments • 1. Dialyzed fetal bovine serum Shanghai Bohan Biotechnology Co., Ltd (BS-0005-500) • 2. DMEM culture medium Thermo Fisher Scientific (China) Co., Ltd. (10569) • 3. HEPES Thermo Fisher Scientific (China) Co., Ltd. (15630080) • 4. Trypsin Thermo Fisher Scientific (China) Co., Ltd. (2192509) • 5. Penicillin-streptomycin solution Thermo Fisher Scientific (China) Co., Ltd. (15140-122) • 6. MEM non-essential amino acid solution Thermo Fisher Scientific (China) Co., Ltd. (11140) • 7. Geneticin (G418) Thermo Fisher Scientific (China) Co., Ltd. (11811031) • 8. Blasticidin Thermo Fisher Scientific (China) Co., Ltd. (R21001) • 9. PolylysineThermo Fisher Scientific (China) Co., Ltd. (P4832) • 10. Dofetilide Beijing Express Technology Co., Ltd. (D525700) • 11. Doxycycline Sigma-Aldrich (Shanghai) Trading Co., Ltd. (D9891) • 12. Carbon dioxide incubator Thermo Fisher Scientific (China) Co., Ltd. (371) • 13. Puller Sutter Company, U.S. (P-97) • 14. Micromanipulator Siskiyou Company, U.S. (MC1000e) • 15. Micromanipulator Sutter Company, U.S. (ROE-200; MP285) • 16. Amplifier HEKA Company, Germany (EPC10) • 17. Microscope Olympus (China) Co., Ltd. (IX51/71/73) • 18. Perfusion system ALA Company, U.S. (VM8 gravity administration system)
II. Culture of cell lines and cells
HEK293 cells (Cat. No: K1236) stably expressing hERG ion channel were purchased from Invitrogen. The cells were cultured in a culture medium containing 85% DMEM, 10% dialyzed fetal bovine serum, 0.1 mM non-essential amino acid solution, 100 U/mL penicillin-streptomycin solution, 25 mM HEPES, 5 μg/mL blasticidin, and 400 μg/mL geneticin. When the cell density increased to 40-80% of the bottom area of the culture dish, the cells were digested with trypsin and subcultured thrice every week. Before the experiment, the cells were cultured at a density of 5×10^5 in 6-cm culture dishes, induced for 48 h with 1 μg/mL doxycycline, and then digested and inoculated on a slide for the subsequent manual patch-clamp experiment.
III. Preparation of solutions
1) Extracellular fluid: 132 mM sodium chloride, 4 mM potassium chloride, 3 mM calcium chloride, 0.5 mM magnesium chloride, 11.1 mM glucose, and 10 mM HEPES (adjusted to pH 7.35 with sodium hydroxide).
2) Intracellular fluid: 140 mM potassium chloride, 2 mM magnesium chloride, 10 mM EGTA, 5 mM ATP-magnesium salt, and 10 mM HEPES (adjusted to pH 7.35 with potassium hydroxide).
Note: the osmotic pressure of the solutions was controlled at 280-300 mOsmol/kg. The solutions were filtered and stored at 4° C. before use. The ATP-magnesium salt was prepared into a 100 mM stock solution, subpackaged, and stored in a −20° C. refrigerator. On the day of the experiment, a certain amount of the stock solution was added into the intracellular fluid right before use.
1) The slides carrying HEK293 cells in the culture dish were placed in the perfusion chamber of the micromanipulation stage.
2) Appropriate cells were placed in the center of the field of view under an Olympus IX51, IX71, or IX73 inverted microscope. The tip of the glass electrode was found using a 10× objective lens and placed in the center of the field of view. The electrode was then moved down using a micromanipulator while the electrode was slowly brought into proximity to the cell using the coarse adjustment.
3) When the electrode was in close proximity to the cell, the lens was switched to a 40× objective lens for observation. The micromanipulator was used for fine adjustment to make the electrode approach the surface of the cell gradually.
4) Negative pressure was applied to form a seal with a resistance higher than 1 GΩ between the electrode tip and the cell membrane. […]
With `Cn1cnc2c(=O)n(-c3cccnc3C3CC3)c3cc(C(F)(F)F)ccc3c21` (single isomer, unassigned) [Compound 48-P2, 5-(2-cyclopropylpyridin-3-yl)-1-methyl-7-(trifluoromethyl)-1,5-dihydro-4H-imidazo[4,5-c]quinolin-4-one] the IC50 was greater than 30 nM. `Cc1ncccc1-n1c(=O)c2ncn(C)c2c2ccc(C(F)(F)F)nc21` (atropisomer, axis not shown) [Compound 20, 1-methyl-5-(2-methylpyridin-3-yl)-7-(trifluoromethyl)-1,5-dihydro-4H-imidazo[4,5-c][1,8]naphthyridin-4-one] gave an IC50 greater than 30 nM. For `Cc1ncccc1-n1c(=O)c2ncoc2c2ccc(C(F)(F)F)nc21` [Compound 40, 5-(2-methylpyridin-3-yl)-7-(trifluoromethyl)oxazolo[4,5-c][1,8]naphthyridin-4(5H)-one], the IC50 was greater than 30 nM. Compound `Cc1ncccc1-n1c(=O)c2ncn(C)c2c2ccc(C(F)(F)F)cc21` [Compound 45, 1-methyl-5-(2-methylpyridin-3-yl)-7-(trifluoromethyl)-1,5-dihydro-4H-imidazo[4,5-c]quinolin-4-one] has an IC50 greater than 30 nM. In the case of `O=c1c2ncoc2c2ccc(C(F)(F)F)nc2n1-c1cccnc1C1CC1` (single isomer, unassigned) [Compound 81-P2, 5-(2-cyclopropylpyridin-3-yl)-7-(trifluoromethyl)oxazolo[4,5-c][1,8]naphthyridin-4(5H)-one], the IC50 is reported as greater than 30 nM. With `Cn1cnc2c(=O)n(-c3cccnc3C3CC3)c3nc(C(F)(F)F)ccc3c21` (single isomer, unassigned) [Compound 42-P2, 5-(2-cyclopropylpyridin-3-yl)-1-methyl-7-(trifluoromethyl)-1,5-dihydro-4H-imidazo[4,5-c][1,8]naphthyridin-4-one] the IC50 was greater than 30 nM. Compound `Cn1cnc2c(=O)n(-c3cccnc3C(F)(F)F)c3nc(C(F)(F)F)ccc3c21` (single isomer, unassigned) [Compound 41-P2, 1-methyl-7-(trifluoromethyl)-5-(2-(trifluoromethyl)pyridin-3-yl)-1,5-dihydro-4H-imidazo[4,5-c][1,8]naphthyridin-4-one] has an IC50 greater than 30 nM. With `Cn1cnc2c(=O)n(-c3cccc(F)c3Cl)c3cc(Cl)ccc3c21` [Compound 39, 7-chloro-5-(2-chloro-3-fluorophenyl)-1-methyl-1,5-dihydro-4H-imidazo[4,5-c]quinolin-4-one] the IC50 was greater than 30 nM. Compound `Cn1cnc2c(=O)n(-c3cccnc3C3CC3)c3cc(Cl)ccc3c21` (single isomer, unassigned) [Compound 49-P2, 7-chloro-5-(2-cyclopropylpyridin-3-yl)-1-methyl-1,5-dihydro-4H-imidazo[4,5-c]quinolin-4-one] has an IC50 greater than 30 nM. For `Cn1cnc2c(=O)n(-c3cccc(F)c3Cl)c3nc(C(F)(F)F)ccc3c21` (single isomer, unassigned) [Compound 25-P2, 5-(2-chloro-3-fluorophenyl)-1-methyl-7-(trifluoromethyl)-1,5-dihydro-4H-imidazo[4,5-c][1,8]naphthyridin-4-one], the IC50 was greater than 30 nM. For `Cn1cnc2c(=O)n(-c3cccc(F)c3Cl)c3nc(C(F)(F)F)ccc3c21` (atropisomer, axis not shown) [Compound 25, 5-(2-chloro-3-fluorophenyl)-1-methyl-7-(trifluoromethyl)-1,5-dihydro-4H-imidazo[4,5-c][1,8]naphthyridin-4-one], the IC50 was greater than 30 nM.
